1 compound from PMC11081424 (Protein Science : A Publication of the Protein Society, 2024) can be followed below.

This experiment concerns the target T1, TPARED (Comamonas sp., UniProt Q3C1E0).
T1 sequence (Q3C1E0 1-336): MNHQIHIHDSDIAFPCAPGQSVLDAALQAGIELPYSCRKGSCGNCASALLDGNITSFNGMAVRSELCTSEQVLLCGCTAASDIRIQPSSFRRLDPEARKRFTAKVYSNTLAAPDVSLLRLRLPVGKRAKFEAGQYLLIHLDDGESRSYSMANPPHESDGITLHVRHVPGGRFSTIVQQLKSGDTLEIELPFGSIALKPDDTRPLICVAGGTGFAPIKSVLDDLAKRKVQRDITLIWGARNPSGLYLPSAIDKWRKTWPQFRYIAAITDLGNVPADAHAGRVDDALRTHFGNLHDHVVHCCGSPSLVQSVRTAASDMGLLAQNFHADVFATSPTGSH
Kind of experiment: FAD released by acid denaturation, UV/vis at […] nm. It counts as binding. Conditions: as purified, three purifications.

Take `Cc1cc2nc3c(=O)[nH]c(=O)nc-3n(C[C@H](O)[C@H](O)[C@H](O)COP(=O)(O)OP(=O)(O)OC[C@H]3O[C@@H](n4cnc5c(N)ncnc54)[C@H](O)[C@@H]3O)c2cc1C` [FAD]: the “equivalents of FAD per protein” value was 0.95 ± 0.08 equivalents.
